According to patent US20220119354A1, “DIAMINO-SUBSTITUTED PYRIDINES AND PYRIMIDINES AS HERBICIDES” (FMC Corporation, priority 2019, published 2022):

Assays:
Type in all cases: in vivo
[1] = test system: barnyardgrass (Echinochloa crus-galli); assay: Test A preemergence, barnyardgrass; conditions: 0 to 100 scale
How it was run: (§1)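 Using a solvent/surfactant formulation, test chemicals were sprayed onto freshly seeded soil or onto 2–10 cm seedlings at the one- to two-leaf stage. Visual injury ratings on a 0–100 scale were made about 10 d later in the greenhouse.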

kochia (Kochia scoparia) [2] = assay: Test A preemergence, kochia; conditions: 0 to 100 scale
How it was run: as §1

[3] = test system: ragweed (common ragweed, Ambrosia elatior); assay: Test A preemergence, ragweed; conditions: 0 to 100 scale
How it was run: as §1

[4] = test system: ryegrass, Italian (Lolium multiflorum); assay: Test A preemergence, Italian ryegrass; conditions: 0 to 100 scale
How it was run: as §1

[5] = test system: foxtail, giant (Setaria faberii); assay: Test A preemergence, giant foxtail; conditions: 0 to 100 scale
How it was run: as §1

[6] = test system: pigweed (Amaranthus retroflexus); assay: Test A preemergence, pigweed; conditions: 0 to 100 scale
How it was run: as §1

[7] = test system: barnyardgrass (Echinochloa crus-galli); assay: Test A postemergence, barnyardgrass; conditions: 0 to 100 scale
How it was run: as §1

kochia (Kochia scoparia) [8] = assay: Test A postemergence, kochia; conditions: 0 to 100 scale
How it was run: as §1

[9] = test system: ragweed (common ragweed, Ambrosia elatior); assay: Test A postemergence, ragweed; conditions: 0 to 100 scale
How it was run: as §1

[10] = test system: ryegrass, Italian (Lolium multiflorum); assay: Test A postemergence, Italian ryegrass; conditions: 0 to 100 scale
How it was run: as §1

[11] = test system: foxtail, giant (Setaria faberii); assay: Test A postemergence, giant foxtail; conditions: 0 to 100 scale
How it was run: as §1

[12] = test system: pigweed (Amaranthus retroflexus); assay: Test A postemergence, pigweed; conditions: 0 to 100 scale
How it was run: as §1

[13] = test system: wheat (Triticum aestivum); assay: Test A postemergence, wheat; conditions: 0 to 100 scale
How it was run: as §1

corn (Zea mays) = assay: Test A postemergence, corn; conditions: 0 to 100 scale
How it was run: as §1

[14] = test system: blackgrass (Alopecurus myosuroides); assay: Test A postemergence, blackgrass; conditions: 0 to 100 scale
How it was run: as §1

[15] = test system: galium (catchweed bedstraw, Galium aparine); assay: Test A postemergence, galium; conditions: 0 to 100 scale
How it was run: as §1

rice (Oryza sativa) = assay: Test B flooded paddy test, rice; conditions: Flood, 250 g ai/ha, applied to paddy water, 2-leaf stage, visual evaluation after 13 to 15 d
How it was run: (§2)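 Pots flooded to 3 cm above the soil when treated, with test compound added straight to the water and the flood maintained. Treated plants were at the 2-leaf stage and stayed 13–15 d in greenhouse. Response versus untreated controls scored visually from 0 (no effect) to 100 (complete control).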

[16] = test system: sedge, umbrella (small-flower umbrella sedge, Cyperus difformis); assay: Test B flooded paddy test, umbrella sedge; conditions: Flood, 250 g ai/ha, applied to paddy water, 2-leaf stage, visual evaluation after 13 to 15 d
How it was run: as §2

[17] = test system: ducksalad (Heteranthera limosa); assay: Test B flooded paddy test, ducksalad; conditions: Flood, 250 g ai/ha, applied to paddy water, 2-leaf stage, visual evaluation after 13 to 15 d
How it was run: as §2

[18] = test system: barnyardgrass (Echinochloa crus-galli); assay: Test B flooded paddy test, barnyardgrass; conditions: Flood, 250 g ai/ha, applied to paddy water, 2-leaf stage, visual evaluation after 13 to 15 d
How it was run: as §2

CCc1ccc2oc([C@@H](C)Nc3ncc(C(F)(F)F)c(N)n3)cc2c1 [Compound 17]
Plant response rating, Barnyardgrass ([1]; 125 g ai/ha): 0
Plant response rating, Barnyardgrass ([1]; 500 g ai/ha): 0
Plant response rating, Kochia (kochia (Kochia scoparia) [2]; 125 g ai/ha): 0
Plant response rating, Kochia (kochia (Kochia scoparia) [2]; 500 g ai/ha): 0
Plant response rating, Ragweed ([3]; 125 g ai/ha): 0
Plant response rating, Ragweed ([3]; 500 g ai/ha): 50
Plant response rating, Ryegrass, Italian ([4]; 125 g ai/ha): 0
Plant response rating, Ryegrass, Italian ([4]; 500 g ai/ha): 20
Plant response rating, Foxtail, Giant ([5]; 125 g ai/ha): 0
Plant response rating, Foxtail, Giant ([5]; 500 g ai/ha): 20
Plant response rating, Pigweed ([6]; 125 g ai/ha): 0
Plant response rating, Pigweed ([6]; 500 g ai/ha): 0
Plant response rating, Barnyardgrass ([7]; 125 g ai/ha): 0
Plant response rating, Barnyardgrass ([7]; 500 g ai/ha): 0
Plant response rating, Kochia (kochia (Kochia scoparia) [8]; 125 g ai/ha): 0
Plant response rating, Kochia (kochia (Kochia scoparia) [8]; 500 g ai/ha): 0
Plant response rating, Ragweed ([9]; 125 g ai/ha): 0
Plant response rating, Ragweed ([9]; 500 g ai/ha): 20
Plant response rating, Ryegrass, Italian ([10]; 125 g ai/ha): 0
Plant response rating, Ryegrass, Italian ([10]; 500 g ai/ha): 0
Plant response rating, Foxtail, Giant ([11]; 125 g ai/ha): 20
Plant response rating, Foxtail, Giant ([11]; 500 g ai/ha): 20
Plant response rating, Pigweed ([12]; 125 g ai/ha): 0
Plant response rating, Pigweed ([12]; 500 g ai/ha): 20
Plant response rating, Wheat ([13]; 125 g ai/ha): 0
Plant response rating, Wheat ([13]; 500 g ai/ha): 0
Plant response rating, Corn (corn (Zea mays); 125 g ai/ha): 0
Plant response rating, Corn (corn (Zea mays); 500 g ai/ha): 0
Plant response rating, Blackgrass ([14]; 125 g ai/ha): 0
Plant response rating, Blackgrass ([14]; 500 g ai/ha): 0
Plant response rating, Galium ([15]; 125 g ai/ha): 0
Plant response rating, Galium ([15]; 500 g ai/ha): 0
Plant response rating, Rice (0 to 100 scale, 0 is no effect, 100 is complete control) (rice (Oryza sativa)): 0
Plant response rating, Sedge, Umbrella (0 to 100 scale, 0 is no effect, 100 is complete control) [16]: 0
Plant response rating, Ducksalad (0 to 100 scale, 0 is no effect, 100 is complete control) [17]: 0
Plant response rating, Barnyardgrass (0 to 100 scale, 0 is no effect, 100 is complete control) [18]: 0

CC[C@@H](Nc1ncc(C(F)(F)F)c(N)n1)c1cc2ccccc2o1 [Compound 21]
Plant response rating, Barnyardgrass ([1]; 1000 g ai/ha): 100
Plant response rating, Kochia (kochia (Kochia scoparia) [2]; 1000 g ai/ha): 80
Plant response rating, Ragweed ([3]; 1000 g ai/ha): 100
Plant response rating, Ryegrass, Italian ([4]; 1000 g ai/ha): 80
Plant response rating, Foxtail, Giant ([5]; 1000 g ai/ha): 100
Plant response rating, Pigweed ([6]; 1000 g ai/ha): 100
Plant response rating, Barnyardgrass ([7]; 1000 g ai/ha, 0 no effect, 100 complete control): 80
Plant response rating, Kochia (kochia (Kochia scoparia) [8]; 1000 g ai/ha): 90
Plant response rating, Ragweed ([9]; 1000 g ai/ha): 80
Plant response rating, Ryegrass, Italian ([10]; 1000 g ai/ha): 50
Plant response rating, Foxtail, Giant ([11]; 1000 g ai/ha): 70
Plant response rating, Pigweed ([12]; 1000 g ai/ha): 100
Plant response rating, Wheat ([13]; 1000 g ai/ha): 0
Plant response rating, Corn (corn (Zea mays); 1000 g ai/ha): 100
Plant response rating, Blackgrass ([14]; 1000 g ai/ha): 80
Plant response rating, Galium ([15]; 1000 g ai/ha): 80
Plant response rating, Rice (0 to 100 scale, 0 is no effect, 100 is complete control) (rice (Oryza sativa)): 0
Plant response rating, Sedge, Umbrella (0 to 100 scale, 0 is no effect, 100 is complete control) [16]: 65
Plant response rating, Ducksalad (0 to 100 scale, 0 is no effect, 100 is complete control) [17]: 60
Plant response rating, Barnyardgrass (0 to 100 scale, 0 is no effect, 100 is complete control) [18]: 0

C[C@@H](Nc1ncc(C(F)(F)F)c(N)n1)c1cc2ccccc2o1 [Compound 22, N2-[(1R)-1-(2-benzofuranyl)ethyl]-5-(trifluoromethyl)-2,4-pyrimidinediamine]
Plant response rating, Barnyardgrass ([1]; 1000 g ai/ha): 100
Plant response rating, Kochia (kochia (Kochia scoparia) [2]; 1000 g ai/ha): 100
Plant response rating, Ragweed ([3]; 1000 g ai/ha): 100
Plant response rating, Ryegrass, Italian ([4]; 1000 g ai/ha): 100
Plant response rating, Foxtail, Giant ([5]; 1000 g ai/ha): 100
Plant response rating, Pigweed ([6]; 1000 g ai/ha): 100
pest or weed control at 1000 g/ha ([7]; Echinochloa crus-galli, post-emergence, 240 h, 1000 g ai/ha, 0 no effect, 100 complete control, read-out: Plant response rating, Barnyardgrass): 100%
pest or weed control at 1000 g/ha (kochia (Kochia scoparia) [8]; Bassia scoparia, post-emergence, 240 h, 1000 g ai/ha, read-out: Plant response rating, Kochia): 80%
pest or weed control at 1000 g/ha ([9]; Ambrosia artemisiifolia, post-emergence, 240 h, 1000 g ai/ha, read-out: Plant response rating, Ragweed): 80%
pest or weed control at 1000 g/ha ([10]; Lolium multiflorum, post-emergence, 240 h, 1000 g ai/ha, read-out: Plant response rating, Ryegrass, Italian): 100%
pest or weed control at 1000 g/ha ([11]; Setaria faberi, post-emergence, 240 h, 1000 g ai/ha, read-out: Plant response rating, Foxtail, Giant): 90%
pest or weed control at 1000 g/ha ([12]; Amaranthus retroflexus, post-emergence, 240 h, 1000 g ai/ha, read-out: Plant response rating, Pigweed): 100%
plant injury at 1000 g/ha ([13]; Triticum aestivum, post-emergence, 240 h, 1000 g ai/ha, read-out: Plant response rating, Wheat): 40%
Corn plant response rating (crop injury, 0 = no effect, 100 = complete kill) at 1000 g/ha (corn (Zea mays); Zea mays, post-emergence, 240 h, 1000 g ai/ha): 100%
pest or weed control at 1000 g/ha ([14]; Alopecurus myosuroides, post-emergence, 240 h, 1000 g ai/ha, read-out: Plant response rating, Blackgrass): 90%
pest or weed control at 1000 g/ha ([15]; Galium, post-emergence, 240 h, 1000 g ai/ha, read-out: Plant response rating, Galium): 90%
plant injury at 250 g/ha (rice (Oryza sativa); Oryza sativa, 360 h, read-out: Plant response rating, Rice (0 to 100 scale, 0 is no effect, 100 is complete control)): 0%
pest or weed control at 250 g/ha ([16]; Cyperus difformis, 360 h, read-out: Plant response rating, Sedge, Umbrella (0 to 100 scale, 0 is no effect, 100 is complete control)): 95%
pest or weed control at 250 g/ha ([17]; Heteranthera limosa, 360 h, read-out: Plant response rating, Ducksalad (0 to 100 scale, 0 is no effect, 100 is complete control)): 100%
pest or weed control at 250 g/ha ([18]; Echinochloa crus-galli, 360 h, read-out: Plant response rating, Barnyardgrass (0 to 100 scale, 0 is no effect, 100 is complete control)): 40%
